Source: article PMC8449414, “Rational design of ASCT2 inhibitors using an integrated experimental-computational approach” (Proceedings of the National Academy of Sciences of the …, 2021)
“Also recorded” adds a separate entry of the source. Each block holds one compound with its values, some of them ahead of it.

What was measured:
Assay in all cases: Electrophysiology: SLC1 specificity, anion current in transfected HEK293 cells
Type in all cases: cell-based
[1] = molecular target: T1, hEAAT5 (Homo sapiens, UniProt O00341); details: for Binding affinity Ki / Ki: HEK293 cells, 0 mV, 10 mM glutamate and 130 mM NaSCN internal, No current = no outward current up to highest concentration tested (§ 20-50, || 100-400, # 1500-2500 µM); for Ki: read-out: Binding affinity Ki
T1 construct: expressed in transfected cells; host or cells: HEK293 (ATCC CRL-11268), transient transfection
T1 sequence (O00341 whole entry): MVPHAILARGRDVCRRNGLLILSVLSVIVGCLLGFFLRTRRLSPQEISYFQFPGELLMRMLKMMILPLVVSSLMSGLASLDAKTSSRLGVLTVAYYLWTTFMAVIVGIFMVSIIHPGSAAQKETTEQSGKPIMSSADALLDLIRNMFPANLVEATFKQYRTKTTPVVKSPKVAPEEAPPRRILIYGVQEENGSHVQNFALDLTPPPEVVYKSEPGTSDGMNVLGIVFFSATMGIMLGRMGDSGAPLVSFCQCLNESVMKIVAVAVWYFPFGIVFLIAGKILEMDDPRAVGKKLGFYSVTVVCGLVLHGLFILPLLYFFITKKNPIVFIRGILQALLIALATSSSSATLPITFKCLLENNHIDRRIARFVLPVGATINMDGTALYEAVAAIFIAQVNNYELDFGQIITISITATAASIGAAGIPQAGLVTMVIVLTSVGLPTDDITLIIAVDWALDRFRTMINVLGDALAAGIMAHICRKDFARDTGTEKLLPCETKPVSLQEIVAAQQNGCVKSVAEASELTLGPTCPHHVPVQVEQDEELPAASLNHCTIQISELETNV
Method: (§1) We also tested the specificity of Lc-BPE for ASCT2 over other SLC1 family members (ASCT1, EAAT1-3, and EAAT5).
(§2) Fig. S3. SLC-1 specificity of Lc-BPE. (A) Electrophysiological current responses to the application of 100 µM glutamate (red trace) or varying concentrations of Lc-BPE (black, blue and red traces) to rEAAT1-expressing cells HEK293 cells. (B-C) Dose response curves obtained from currents recorded a fter application of Lc-BPE extracellularly to cells transiently expressing hASCT2, rASCT2, hASCT1 (panel B) and rEAAT1, rEAAT2, rEAAT3 and hEAAT5 (panel C) respectively. For hASCT2, rASCT2 and hASCT1, intracellular pipette solution contained 10 mM alanine and 130 mM NaSCN. For rEAAT1, rEAAT2, rEAAT3 and hEAAT5, intracellular solution contained 10 mM glutamate and 130 mM NaSCN. Extracellular solution was the same for all the experiments (140 mM NaCl). The voltage was 0 mV. […]
(§3) Cell culture and transfection
(§4) Human embryonic kidney 293 (HEK293, ATCC CRL -11268) cells were cultured in DMEM media supplemented with 10% (v/v) fetal bovine serum (FBS), 2 mM glutamine, 1% penicillin streptomycin solution, 1 mM sodium pyruvate and non -essential amino acids. Cells were maintained at 370C in a fully humidified atmosphere containing 5% CO2. rASCT2, hASCT2, hASCT1, EAAT1, EAAT2, EAAT3, EAAT5 and YFP complementary DNAs were each used to transiently transfect HEK293 using POLYPLUS Jet-prime transfection reagent. Cells were analyzed using electrophysiological techniques 24-40 hours after transfection.
(§5) Electrophysiological techniques
(§6) Electrophysiological experiments were performed as described previously 1,2. Stock solutions of inhibitor was prepared in dimethyl sulfoxide (DMSO) up to 100 mM.
(§7) Dilutions to working concentrations were made using external buffer. The highest […]
(§8) cells. For rASCT2, hASCT2 and hASCT1, external buffer contained 140 mM NaCl, 2 mM MgCl2, 2 mM CaCl2, and 10 mM HEPES, pH 7.40 while internal pipette solution comprised of 130 mM NaSCN, 2 mM MgCl2, 10 mM EGTA, 10 mM HEPES and 10mM alanine, pH 7.40. For specificity experiments with EAAT1, EAAT2, EAAC1 and EAAT5, internal solution contained 10 mM glutamate instead of alanine. Compounds were applied to HEK293 cells expressing DNA of interest suspended from a current recording electrode in whole cell configuration44 through a rapid solution exchange device described previously45. Cells are immersed in external buffer bath used to dissolve the inhibitors. The open pipette resistance was between 3 and 6 MΩ. Series resistance was not compensated in these experiments due to relatively small currents. Current s traces were recorded using an Adams and List EPC7 amplifier and digitized using a Molecular Devices Digidata A/D converter.
(§9) Data analysis was performed as described previously 46. Linear and nonlinear curve fitting of the experimental data were analyzed using MicroCal Origin software. Linear plots were fitted using the general equation (y = a + bx) obtaining adjusted R 2 and Pearson’s r values. Nonlinear dose–response relationships were fitted with a Michaelis – Menten-like equation to obtain apparent Ki values in the absence of substrate. For competition studies, equation I = I1 + I2 [Inh]/(Ki + [Inh]) was used for fitting, where I1 is the alanine induced current without the inhibitor, and I2 is the maximum current in the presence of saturating inhibitor concentration, [Inh]max 1,2. At least five experiments were performed for each compound. Unless stated otherwise, the error bars in all our graphs represent mean ± SD .
(§10) ASCT2 expression and purification
(§11) Human ASCT2 (hASCT2) was produced in Pichia pastoris X-33 strain (Invitrogen) in fermentor26 and purified using DDM and CHS (Anatrace) and 1 mM L-glutamine (Merck) to maintain protein stability 27. Membranes representing ~1.5 g cells were solubilized in buffer A (25 mM Tris-HCl, pH 7.4, 300 mM NaCl, 10% (vol/vol) glycerol, 1 mM L - glutamine, 1% DDM and 0.1% CHS) for 1 h at 4 °C; ultracentrifuged (30 min, 442,907 × […]

[2] = molecular target: T2, rEAAT2 (Rattus norvegicus, UniProt P31596); details: 0 mV, 10 mM glutamate and 130 mM NaSCN internal, No current = no outward current up to highest concentration tested (§ 20-50, || 100-400, # 1500-2500 µM); for Ki: read-out: Binding affinity Ki
T2 construct: expressed in transfected cells; host or cells: HEK293 (ATCC CRL-11268), transient transfection
T2 sequence (P31596 whole entry): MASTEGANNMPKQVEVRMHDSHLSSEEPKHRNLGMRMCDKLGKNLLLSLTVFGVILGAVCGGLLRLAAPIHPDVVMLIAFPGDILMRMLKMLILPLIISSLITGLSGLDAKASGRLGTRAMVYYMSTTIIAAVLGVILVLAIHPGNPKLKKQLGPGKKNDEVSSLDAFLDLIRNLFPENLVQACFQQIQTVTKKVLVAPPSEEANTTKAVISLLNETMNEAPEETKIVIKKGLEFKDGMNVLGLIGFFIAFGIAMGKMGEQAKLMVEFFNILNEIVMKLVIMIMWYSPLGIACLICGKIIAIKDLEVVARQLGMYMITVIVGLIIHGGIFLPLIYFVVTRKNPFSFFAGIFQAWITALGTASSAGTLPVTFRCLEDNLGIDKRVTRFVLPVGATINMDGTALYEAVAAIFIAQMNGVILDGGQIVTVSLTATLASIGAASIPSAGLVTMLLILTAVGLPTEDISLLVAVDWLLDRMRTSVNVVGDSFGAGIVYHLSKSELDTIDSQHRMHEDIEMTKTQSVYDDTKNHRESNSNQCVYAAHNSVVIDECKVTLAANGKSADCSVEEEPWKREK
Method: as §1, §2, §3, §4, §5, §6, §7, §8, §9, §10, §11

[3] = molecular target: T3, rEAAT3 (Rattus norvegicus, UniProt P51907); details: 0 mV, 10 mM glutamate and 130 mM NaSCN internal, No current = no outward current up to highest concentration tested (§ 20-50, || 100-400, # 1500-2500 µM); for Ki: read-out: Binding affinity Ki
T3 construct: expressed in transfected cells; host or cells: HEK293 (ATCC CRL-11268), transient transfection
T3 sequence (P51907 1-523): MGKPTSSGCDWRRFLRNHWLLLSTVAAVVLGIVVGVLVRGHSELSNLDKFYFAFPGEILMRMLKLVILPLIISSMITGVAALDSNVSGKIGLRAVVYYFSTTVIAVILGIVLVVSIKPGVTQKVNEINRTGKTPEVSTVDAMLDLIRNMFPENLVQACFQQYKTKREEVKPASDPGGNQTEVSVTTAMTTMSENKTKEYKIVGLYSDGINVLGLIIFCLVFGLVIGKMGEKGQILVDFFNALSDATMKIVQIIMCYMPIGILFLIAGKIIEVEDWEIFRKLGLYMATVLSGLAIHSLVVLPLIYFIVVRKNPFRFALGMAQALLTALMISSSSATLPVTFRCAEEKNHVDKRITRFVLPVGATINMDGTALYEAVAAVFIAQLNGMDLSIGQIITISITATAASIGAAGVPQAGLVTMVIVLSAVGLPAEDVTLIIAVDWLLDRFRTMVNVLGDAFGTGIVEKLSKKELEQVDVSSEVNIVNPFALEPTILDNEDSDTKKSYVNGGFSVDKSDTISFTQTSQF
Method: as §1, §2, §3, §4, §5, §6, §7, §8, §9, §10, §11

Compound: O=C(O[C@@H]1CN[C@H](C(=O)O)C1)c1ccc(C(O)c2ccccc2)cc1 (some centres unmarked) [ERA-9]
- Binding affinity Ki [1]: No current; also recorded: No inhibitory activity was detected
- Binding affinity Ki [2]: No current; also recorded: No inhibitory activity was detected
- Binding affinity Ki [3]: No current; also recorded: No inhibitory activity was detected

Compound: O=C(O[C@@H]1CN[C@H](C(=O)O)C1)c1ccc(Oc2ccccc2)cc1 [ERA-16]
- Ki [1]: 6170 ± 1470 nM
- Ki [2]: 7720 ± 1890 nM
- Ki [3]: 10300 ± 2150 nM

Compound: O=C(O[C@@H]1CN[C@H](C(=O)O)C1)c1ccc(-c2ccc(F)cc2)cc1 [ERA-4]
- Ki [1]: 2400 ± 720 nM
- Ki [2]: 1290 ± 310 nM
- Ki [3]: 690 ± 70 nM

Compound: O=C(O[C@@H]1CN[C@H](C(=O)O)C1)c1ccccc1-c1ccccc1 [ERA-3]
- Binding affinity Ki [1]: No current
- Binding affinity Ki [2]: No current
- Binding affinity Ki [3]: No current

Compound: N[C@@H](COC(=O)c1ccccc1)C(=O)O [ERA-25]
- Binding affinity Ki [1]: No current
- Ki [2]: 164000 ± 47000 nM
- Ki [3]: 656000 ± 115000 nM

Compound: N[C@@H](COC(=O)c1cccnc1)C(=O)O [ERA-28]
- Binding affinity Ki [1]: No current
- Binding affinity Ki [2]: No current
- Binding affinity Ki [3]: No current

Compound: N[C@@H](COC(=O)c1ccc(NC(=O)c2ccccc2)cc1)C(=O)O [ERA-21]
- Ki [1]: 21300 ± 3150 nM
- Ki [2]: 11000 ± 1250 nM
- Ki [3]: 12300 ± 1860 nM

Compound: O=C(O[C@@H]1CN[C@H](C(=O)O)C1)c1ccc(-c2ccccc2)cc1 [Lc-BPE, L-cis hydroxyproline biphenyl ester]
- Ki [1]: 2220 ± 460 nM
- Ki for hEAAT5 higher than for rASCT2 ([1]; hEAAT5 versus rASCT2): ~3 fold

Continued, values first:

- Binding affinity Ki [1]: No current
- Binding affinity Ki [2]: No current
- Binding affinity Ki [3]: No current
Compound: O=C(O[C@H]1CN[C@H](C(=O)O)C1)c1ccc(C(=O)c2ccccc2)cc1 [ERA-35]

- Ki [1]: 1050 ± 150 nM
- Ki [2]: 970 ± 100 nM
- Ki [3]: 1250 ± 240 nM
Compound: O=C(O[C@@H]1CN[C@H](C(=O)O)C1)c1ccc(-c2ccc(C(F)(F)F)cc2)cc1 [ERA-5]

- Binding affinity Ki [1]: No current
- Binding affinity Ki [2]: No current
- Binding affinity Ki [3]: No current
Compound: O=C(O[C@@H]1CN[C@H](C(=O)O)C1)c1ccc(OCc2ccccc2)cc1 [ERA-31]

- Ki [1]: 2500 ± 930 nM
- Ki [2]: 1300 ± 130 nM
- Ki [3]: 1990 ± 360 nM
Compound: Cc1ccccc1-c1ccc(C(=O)O[C@@H]2CN[C@H](C(=O)O)C2)cc1 [ERA-6]

- Binding affinity Ki [1]: No current
- Binding affinity Ki [2]: No current
- Binding affinity Ki [3]: No current
Compound: O=C(O[C@@H]1CN[C@H](C(=O)O)C1)C(c1ccccc1)c1ccccc1 [ERA-29]

- Binding affinity Ki [1]: No current
- Binding affinity Ki [2]: No current
- Binding affinity Ki [3]: No current
Compound: O=C(Nc1ccc(C(=O)O[C@@H]2CN[C@H](C(=O)O)C2)cc1)c1ccc(C(F)(F)F)cc1 [ERA-11]
